Laboratory results published in ChEMBL document CHEMBL1201862, “PubChem BioAssay data set” (2004).
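Growth conditions: 96-well plates. Treatment: test compound, 48 hours, 5 concentrations. Analysis: linear interpolation between bracketing concentrations; unreached endpoints set to highest concentration. GI50 = concentration required for 50% inhibition of growth.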 The source made the active and inactive calls. Cut-off read from the data, not from the text of the source: active = GI50 up to about 1.1 µM and inactive = higher.

What was measured:
Assay in all cases: DTP human tumour cell line panel, 48 h
SK-MEL-28 = tested on: SK-MEL-28
TK-10 = tested on: TK-10
A498 = tested on: A498
UACC-257 = tested on: UACC-257
MOLT-4 = tested on: MOLT-4
NCI-H460 = tested on: NCI-H460
SR = tested on: SR
CCRF-CEM = tested on: CCRF-CEM
Malme-3M = tested on: Malme-3M
IGROV-1 = tested on: IGROV-1
U-251 = tested on: U-251
RXF 393 = tested on: RXF 393
HCC 2998 = tested on: HCC 2998
HOP-62 = tested on: HOP-62
HOP-92 = tested on: HOP-92
NCI-H522 = tested on: NCI-H522
DU-145 = tested on: DU-145
MDA-N = tested on: MDA-N
NCI/ADR-RES = tested on: NCI/ADR-RES
MDA-MB-231 = tested on: MDA-MB-231

**Q.** Which results are given for COC(=O)c1c(CC(=O)OC(C)C)cc2n(c1=O)Cc1c-2nc2ccccc2c1OC?
**A.** GI50 (SK-MEL-28): > 100 µM (inactive); GI50 (TK-10): > 100 µM (inactive); GI50 (A498): > 100 µM (inactive); GI50 (UACC-257): > 100 µM (inactive); GI50 (MOLT-4): > 100 µM (inactive); GI50 (NCI-H460): > 100 µM (inactive); GI50 (SR): 33.8 µM (inactive); GI50 (CCRF-CEM): > 100 µM (inactive); GI50 (Malme-3M): > 100 µM (inactive); GI50 (IGROV-1): 83.9 µM (inactive); GI50 (U-251): > 100 µM (inactive); GI50 (RXF 393): 26.4 µM (inactive); GI50 (HCC 2998): > 100 µM (inactive); GI50 (HOP-62): > 100 µM (inactive); GI50 (HOP-92): 45.6 µM (inactive); GI50 (NCI-H522): > 100 µM (inactive)

**Q.** What does the source list for C(=N\c1ccc(-c2nc3ccccc3[nH]2)cc1)/c1ccc[nH]1?
**A.** GI50 (DU-145): > 100 µM (inactive); GI50 (SK-MEL-28): > 100 µM (inactive); GI50 (TK-10): > 100 µM (inactive); GI50 (A498): 69.5 µM (inactive); GI50 (UACC-257): > 100 µM (inactive); GI50 (MOLT-4): 28.8 µM (inactive); GI50 (SR): 33.1 µM (inactive); GI50 (CCRF-CEM): 11.4 µM (inactive); GI50 (Malme-3M): > 100 µM (inactive); GI50 (IGROV-1): > 100 µM (inactive); GI50 (RXF 393): 76.2 µM (inactive); GI50 (MDA-N): 34.2 µM (inactive); GI50 (HCC 2998): 29.5 µM (inactive); GI50 (NCI/ADR-RES): > 100 µM (inactive); GI50 (HOP-62): 3.94 µM (inactive); GI50 (HOP-92): > 100 µM (inactive); GI50 (NCI-H522): 35 µM (inactive)

**Q.** Which results are given for c1ccc([P+](CCC[P+](c2ccccc2)(c2ccccc2)c2ccccc2)(c2ccccc2)c2ccccc2)cc1?
**A.** GI50 (SK-MEL-28): 33.5 µM (inactive); GI50 (TK-10): 86.7 µM (inactive); GI50 (A498): 93.5 µM (inactive); GI50 (UACC-257): 24 µM (inactive); GI50 (NCI-H460): 20 µM (inactive); GI50 (SR): 45 µM (inactive); GI50 (CCRF-CEM): 22.4 µM (inactive); GI50 (Malme-3M): 70.8 µM (inactive); GI50 (IGROV-1): 41.7 µM (inactive); GI50 (U-251): 6.65 µM (inactive); GI50 (RXF 393): 64.4 µM (inactive); GI50 (HCC 2998): 32.2 µM (inactive); GI50 (HOP-62): 49.3 µM (inactive); GI50 (HOP-92): 20.1 µM (inactive); GI50 (NCI-H522): 19.5 µM (inactive)

**Q.** CCCCCCCCCCCC1CC(=O)NCCCN(C)CCCCN(C)CCCN1C (configuration not stated) [BUDMUNCHIAMINE A] was tested. Which GI50 (SK-MEL-28) did it give?
**A.** 1.69 µM (inactive)

**Q.** And the GI50 (TK-10)?
**A.** 1.73 µM (inactive)

**Q.** What about the GI50 (A498) of the same compound?
**A.** 1.67 µM (inactive)

**Q.** What about the GI50 (UACC-257) of the same compound?
**A.** 1.68 µM (inactive)

**Q.** And the GI50 (MOLT-4)?
**A.** 1.95 µM (inactive)

**Q.** What about the GI50 (NCI-H460) of the same compound?
**A.** 1.36 µM (inactive)

**Q.** And the GI50 (SR)?
**A.** 0.23 µM (active)

**Q.** And the GI50 (CCRF-CEM)?
**A.** 0.156 µM (active)

**Q.** And the GI50 (Malme-3M)?
**A.** 1.9 µM (inactive)

**Q.** And the GI50 (IGROV-1)?
**A.** 1.82 µM (inactive)

**Q.** And the GI50 (U-251)?
**A.** 1.66 µM (inactive)

**Q.** What about the GI50 (RXF 393) of the same compound?
**A.** 1.6 µM (inactive)

**Q.** And the GI50 (HCC 2998)?
**A.** 1.74 µM (inactive)

**Q.** And the GI50 (HOP-62)?
**A.** 1.66 µM (inactive)

**Q.** And the GI50 (HOP-92)?
**A.** 1.39 µM (inactive)

**Q.** And the GI50 (NCI-H522)?
**A.** 1.81 µM (inactive)

**Q.** For COc1ccc(C2[C@H]3C(=O)N(c4ccc(Cc5ccc(N6C(=O)[C@@H]7ON(c8ccccc8)C(c8ccc(OC)cc8)[C@@H]7C6=O)cc5)cc4)C(=O)[C@H]3ON2c2ccccc2)cc1 (some centres not stated), which GI50 (SK-MEL-28) is on record?
**A.** > 100 µM (inactive)

**Q.** What about the GI50 (TK-10) of the same compound?
**A.** > 100 µM (inactive)

**Q.** And the GI50 (A498)?
**A.** > 100 µM (inactive)

**Q.** And the GI50 (UACC-257)?
**A.** > 100 µM (inactive)

**Q.** And the GI50 (MOLT-4)?
**A.** > 100 µM (inactive)

**Q.** What about the GI50 (NCI-H460) of the same compound?
**A.** > 100 µM (inactive)

**Q.** What about the GI50 (SR) of the same compound?
**A.** > 100 µM (inactive)

**Q.** What about the GI50 (CCRF-CEM) of the same compound?
**A.** > 100 µM (inactive)

**Q.** And the GI50 (Malme-3M)?
**A.** 87.5 µM (inactive)

**Q.** And the GI50 (IGROV-1)?
**A.** > 100 µM (inactive)

**Q.** What about the GI50 (U-251) of the same compound?
**A.** > 100 µM (inactive)

**Q.** What about the GI50 (RXF 393) of the same compound?
**A.** > 100 µM (inactive)

**Q.** What about the GI50 (HCC 2998) of the same compound?
**A.** > 100 µM (inactive)

**Q.** And the GI50 (HOP-62)?
**A.** > 100 µM (inactive)

**Q.** What about the GI50 (HOP-92) of the same compound?
**A.** 49.2 µM (inactive)

**Q.** What about the GI50 (NCI-H522) of the same compound?
**A.** > 100 µM (inactive)

**Q.** Which results are given for CCOC(=O)NC(=O)c1cn(CCN2CCN(c3ncnc4[nH]cnc34)CC2)c(=O)[nH]c1=O?
**A.** GI50 (SK-MEL-28): > 100 µM (inactive); GI50 (TK-10): > 100 µM (inactive); GI50 (A498): > 100 µM (inactive); GI50 (UACC-257): > 100 µM (inactive); GI50 (MOLT-4): > 100 µM (inactive); GI50 (NCI-H460): > 100 µM (inactive); GI50 (SR): > 100 µM (inactive); GI50 (CCRF-CEM): > 100 µM (inactive); GI50 (Malme-3M): > 100 µM (inactive); GI50 (IGROV-1): > 100 µM (inactive); GI50 (U-251): > 100 µM (inactive); GI50 (RXF 393): > 100 µM (inactive); GI50 (HCC 2998): > 100 µM (inactive); GI50 (HOP-62): > 100 µM (inactive); GI50 (HOP-92): 10.6 µM (inactive); GI50 (NCI-H522): > 100 µM (inactive)

**Q.** Which results are given for C/C(=N\NC(=N)N)C(CN1CCCCC1)C(c1ccccc1)c1c(O)c2ccccc2oc1=O (configuration not stated)?
**A.** GI50 (SK-MEL-28): > 100 µM (inactive); GI50 (TK-10): > 100 µM (inactive); GI50 (A498): > 100 µM (inactive); GI50 (UACC-257): > 100 µM (inactive); GI50 (SR): > 100 µM (inactive); GI50 (CCRF-CEM): > 100 µM (inactive); GI50 (Malme-3M): > 100 µM (inactive); GI50 (IGROV-1): > 100 µM (inactive); GI50 (RXF 393): > 100 µM (inactive); GI50 (HCC 2998): > 100 µM (inactive); GI50 (HOP-62): > 100 µM (inactive); GI50 (HOP-92): 47.8 µM (inactive); GI50 (NCI-H522): 43.6 µM (inactive)

**Q.** What does the source list for O=Nn1c2ccccc2c2ccccc21?
**A.** GI50 (DU-145): > 100 µM (inactive); GI50 (SK-MEL-28): > 100 µM (inactive); GI50 (TK-10): 70.5 µM (inactive); GI50 (A498): 23.8 µM (inactive); GI50 (UACC-257): 61.2 µM (inactive); GI50 (MOLT-4): 55.1 µM (inactive); GI50 (MDA-MB-231): 65.2 µM (inactive); GI50 (NCI-H460): 9.86 µM (inactive); GI50 (CCRF-CEM): 45.7 µM (inactive); GI50 (Malme-3M): 93.3 µM (inactive); GI50 (IGROV-1): 85.3 µM (inactive); GI50 (U-251): 92.9 µM (inactive); GI50 (RXF 393): 37.7 µM (inactive); GI50 (HCC 2998): 17.1 µM (inactive); GI50 (NCI/ADR-RES): 52.8 µM (inactive); GI50 (HOP-62): > 100 µM (inactive); GI50 (HOP-92): 66.2 µM (inactive); GI50 (NCI-H522): 38.6 µM (inactive)
